Patent US20050107616A1, “Alpha-ketoamide derivatives as cathepsin k inhibitors” (priority 2001, published 2005)

Molecular target: T1, human cathepsin K (Homo sapiens, UniProt P43235)
T1 construct: The proform of cathepsin K was converted to mature cathepsin K by brief exposure to pH 4; made in house; host or cells: baculovirus; Trichoplusia ni High Five cells (virus raised in Sf-9)
T1 sequence (P43235 115-329): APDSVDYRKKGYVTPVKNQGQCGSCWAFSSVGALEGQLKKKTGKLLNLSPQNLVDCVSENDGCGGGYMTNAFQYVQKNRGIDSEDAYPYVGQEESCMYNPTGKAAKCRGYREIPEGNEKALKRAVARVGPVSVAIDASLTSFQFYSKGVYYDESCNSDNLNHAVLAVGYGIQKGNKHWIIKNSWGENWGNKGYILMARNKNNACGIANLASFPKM
Test: Cathepsin K inhibition assay, fluorogenic substrate Cbz-Phe-Arg-AMC, progress curve method
Type: biochemical
Settings: Table 1; human recombinant enzyme, pH 5.5, 30° C., 10 μM substrate; read-out: hCat K Ki
Method: All assays for cathepsin K were carried out with human and rat recombinant enzyme. Assays for cathepsins S Et V were also carried out with human recombinant enzyme. Assays for human cathepsins B. H. and L were carried out with enzyme, purchased from Athens Research and Technology, Inc., prepared from human liver tissue. […] A stock substrate solution of Cbz-Phe-Arg-AMC was prepared at a concentration of 50 mM in dimethyl sulfoxide. This substrate was diluted into the assay for a final substrate concentration of 10 μM in the rat cathepsin K, human cathepsin K, and human cathepsin B assays; a final substrate concentration of 5 μM in the human cathepsin L assay; and a final substrate concentration of 2 μM in the human cathepsin V assay.
All assays contained 10% dimethyl sulfoxide. […] All assays were conducted at 30° C. Product fluorescence (excitation at 360 nm; emission at 440 nm, (except cathepsin H which used excitation at 340 nm; emission at 420 nm)) was monitored with a PerSeptive Biosystems Cytofluor II fluorescence plate reader. Product progress curves were generated over 2.3 h monitoring the formation of 7-amino-4-methylcoumarin product (or β-naphthalamide for cathepsin H).
Two liters of Spodoptera frugiperda (Sf-9) cells (ATCC) were grown in Grace's Supplemented medium (Life Technologies) supplemented with 2 g/L glucose, 10% a fetal bovine serum (HyClone) and 0.10% pluronic F-68 (Life Technologies). […] The cells continued to grow for 72 h post-infection, before the virus was harvested by centrifugation at 1400× g for 30 min.
One and one-half liters of Trichoplusia ni (T. ni) High Five (TM) cells [JRH Biosciences, Woodland, Calif. […] Media were separated from cells at a rate of 1 L/min using the Centritech 100 (TM) continuous-flow centrifuge (DuPont) operating at 200× g.
Protein Purification: Media (human and rat) were filtered through a Whatman 3 filter, and then loaded onto a 25 mL Poros HS II (26 mm×47 mm) cation exchange column equilibrated in 25 mM sodium acetate at pH 5.5 (equilibration buffer). The column was washed until the absorbance reached the baseline value, and then the protein was eluted with a linear gradient from 0-2 M sodium chloride in the equilibration buffer. Column fractions were analyzed by SDS-PAGE, N-terminal sequencing, and mass spectrometry. Fractions containing the proform of cathepsin K were pooled and frozen at −80° C. The proform was concentrated in an Amicon Centriprep 10 and fractionated with a Superdex 75 column (26 mm×600 mm, Pharmacia) equilibrated in 400 mM sodium chloride, 25 mM sodium acetate at pH 5.5.
Cathepsin K Activation: The proform of cathepsin K was converted to mature cathepsin K by brief exposure to pH 4 in the presence of 5 mM L-cysteine. Typically, 5 mM L-cysteine was added to 10 mL of approximately 1 mg/mL procathepsin K. One mL of this solution was diluted ten-fold into 450 mM sodium acetate at pH 4.0 containing 5 mM L-cysteine. This solution was reacted at 23° C. for 2 min before neutralization with 2 mL 1.8 M sodium acetate at pH 6.0. The neutralized sample was added to the remaining 9 mL of procathepsin K. The mixture was incubated at 4° C. for 2-3 days. The activated cathepsin K was chromatographed on a Poros HS II column as described above.
Potential inhibitors were evaluated using the progress curve method. Assays were carried out in the presence of variable concentrations of test compound. Reactions were initiated by addition of buffered solutions of inhibitor and substrate to enzyme. Data analysis was conducted according to one of two procedures depending on the appearance of the progress curves in the presence of inhibitors. […] Ki values were calculated from IC50 values using equation 2 assuming a competitive model. [formula]

| SMILES | Ki |
| --- | --- |
| CCCC[C@H](NC(=O)O[C@H](Cn1cnc(-c2ccc(C(F)(F)F)cc2)c1)C(C)(C)C)C(=O)C(=O)Nc1nccs1 [Example 51, (1S)-2,2-dimethyl-1-({4-[4-(trifluoromethyl)phenyl]-1H-imidazol-1-yl}methyl)propyl(1S)-1-[oxo(1,3-thiazol-2-ylamino)acetyl]pentylcarbamate] | 1 to 100 nM |
| CCCC[C@H](NC(=O)O[C@H](c1nnc(-c2cccnc2)o1)C(C)(C)C)C(=O)C(=O)Nc1ccn[nH]1 [Example 52, (1S)-2,2-dimethyl-1-[5-(3-pyridinyl)-1,3,4-oxadiazol-2-yl]propyl(1S)-1-[oxo(1H-pyrazol-5-ylamino)acetyl]pentylcarbamate] | 0.01 to 1 nM |
| CCCC[C@H](NC(=O)O[C@@H](c1nnc(-c2cccnc2)o1)C(C)(C)C)C(=O)C(=O)Nc1ccn[nH]1 [Example 53, (1R)-2,2-dimethyl-1-[5-(3-pyridinyl)-1,3,4-oxadiazol-2-yl]propyl(1S)-1-[oxo(1H-pyrazol-5-ylamino)acetyl]pentylcarbamate] | 1 to 100 nM |
| CCCC[C@H](NC(=O)O[C@H](c1nnc(-c2ccncc2)o1)C(C)(C)C)C(=O)C(=O)Nc1ccn[nH]1 [Example 54, (1S)-2,2-dimethyl-1-[5-(4-pyridinyl)-1,3,4-oxadiazol-2-yl]propyl(1S)-1-[oxo(1H-pyrazol-5-ylamino)acetyl]pentylcarbamate] | 0.01 to 1 nM |
| CCCC[C@H](NC(=O)O[C@@H](c1nnc(-c2ccncc2)o1)C(C)(C)C)C(=O)C(=O)Nc1ccn[nH]1 [Example 55, (1R)-2,2-dimethyl-1-[5-(4-pyridinyl)-1,3,4-oxadiazol-2-yl]propyl (1S)-1-[oxo(1H-pyrazol-5-ylamino)acetyl]pentylcarbamate] | 100 to 10000 nM |
